Data taken from the supplement of paper PMC11616607.

Tests used:
Test in all cases: drug sensitivity score (DSS) from 5-point dose-response viability curve (DSS (area-under-curve based score)); higher = more sensitive (stronger growth inhibition or killing); extreme values may be limits of the assay
Conditions in all cases: exposure time: 72 h; concentration range: 5 concentrations over 10,000-fold range
CAOV3 = tested on: CAOV3
How it was run: (§1)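 Drugs in DMSO or water were acoustically dispensed (Echo 550) into 384-well plates at five concentrations across a 10,000-fold range. Ovarian cancer and normal ovarian cells (1,500 per well) were then added, incubated for 3 days at 37°C with 5% CO2, and read for viability by CellTiter-Glo luminescence on a PHERAstar FS. From these readings, Breeze software derived a drug sensitivity score per cell line and drug, with higher values meaning more sensitive and zero meaning no response.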

Ovsaho = tested on: Ovsaho
How it was run: as §1

OVCAR8 = tested on: OVCAR8
How it was run: as §1

Kuramochi = tested on: Kuramochi
How it was run: as §1

OVCAR5 = tested on: OVCAR5
How it was run: as §1

COV362 = tested on: COV362
How it was run: as §1

OV90 = tested on: OV90
How it was run: as §1

COV318 = tested on: COV318
How it was run: as §1

HOSE2C = tested on: HOSE2C
How it was run: as §1

OVCAR4 = tested on: OVCAR4
How it was run: as §1

JHOS2 = tested on: JHOS2
How it was run: as §1

HOSE1C = tested on: HOSE1C
How it was run: as §1

SMILES | drug sensitivity score (CAOV3) | drug sensitivity score (Ovsaho) | drug sensitivity score (OVCAR8) | drug sensitivity score (Kuramochi) | drug sensitivity score (OVCAR5) | drug sensitivity score (COV362) | drug sensitivity score (OV90) | drug sensitivity score (COV318) | drug sensitivity score (HOSE2C) | drug sensitivity score (OVCAR4) | drug sensitivity score (JHOS2) | drug sensitivity score (HOSE1C)
C[C@@H](Nc1cc(F)cc(F)c1)c1cc(C(=O)N(C)C)cc2c(=O)cc(N3CCOCC3)oc12 [AZD-8186] | 2.1 | 6.3 | 0.6 | 7.1 | 1.9 | 0 | 0.1 | 0.7 | 0.3 | 3.1 | 0.8 | 0.1
CNc1ncc2cc(-c3cc(NC(=O)NCCC(C)(C)C)c(F)cc3C)c(C)nc2n1 | 7.9 | 8.9 | 9.9 | 8.7 | 11.3 | 4.2 | 24.4 | 0.8 | 5 | 3.7 | 10.3 | 4.2
Cc1c(-c2c(-c3ccc(F)o3)sc3ncnc(O[C@H](Cc4ccccc4OCc4ccnn4CC(F)(F)F)C(=O)O)c23)ccc(OCCN2CCN(C)CC2)c1Cl | 0 | 0 | 0 | 0 | 0.1 | 0.4 | 0.1 | 0.2 | 0 | 0.6 | 0 | 0
Cc1nc(Nc2n[nH]c3c2CN(C(=O)N[C@H](CN(C)C)c2ccccc2)C3(C)C)c2sccc2n1 | 17.5 | 9 | 16.5 | 12.2 | 14.9 | 7.3 | 17 | 7.2 | 7.5 | 10.2 | 10.6 | 20.6
O=C(O)c1ccc2c(c1)nc(Nc1cccc(Cl)c1)c1ccncc12 [Silmitasertib] | 8.6 | 4.7 | 4.7 | 5.5 | 5.3 | 0.9 | 5.8 | 3.2 | 4.5 | 3.3 | 4.4 | 7.7
CCOCc1nc2c(N)nc3ccccc3c2n1CC(C)(C)O [Resiquimod] | 0 | 0.3 | 0 | 1.2 | 0.3 | 0 | 0 | 0 | 0 | 0.3 | 0.6 | 0
CN(C)Cc1c(C(=O)NCCOc2ccc(C(=O)NO)cc2)oc2ccccc12 [Abexinostat] | 13.7 | 10 | 19.9 | 14.6 | 21.7 | 5.6 | 16.5 | 10.1 | 20 | 10.5 | 11.8 | 24.1
O=C(Nc1cccc(NC(=O)c2cccc(O)c2O)c1)c1cccc(O)c1O [MST-312] | 6.7 | 9.7 | 13.9 | 5.5 | 5 | 5.1 | 7.6 | 5.4 | 10.5 | 7.2 | 9.4 | 11.9
CC(C)(O)CC(=O)NCCn1ccc2ncnc(Nc3ccc(Oc4cccc(C(F)(F)F)c4)c(Cl)c3)c21 [TAK-285] | 2.5 | 0.2 | 0.1 | 0.9 | 2 | 0.2 | 0 | 0 | 0 | 0 | 0 | 0
CCCN(CCC)C(=O)C1=Cc2ccc(-c3ccc(C(=O)N4CCCC4)cc3)cc2N=C(N)C1 [Motolimod] | 0 | 0 | 0.8 | 0.3 | 0.5 | 0 | 1.9 | 2.3 | 0 | 0.9 | 1.8 | 0
FC(F)(F)c1ccc(CNc2ccc(Cc3c[nH]c4ncc(Cl)cc34)cn2)cn1 [Pexidartinib] | 0.8 | 0.1 | 1.8 | 0.6 | 2.3 | 0 | 0.7 | 0.7 | 0 | 1.3 | 5 | 0
FC(F)(F)c1ccc(/C=C/c2nc(COc3ccc(CCCCn4ccnn4)cc3)co2)cc1 [Mubritinib] | 5.4 | 0.5 | 16.7 | 0.6 | 0.9 | 0 | 5.9 | 0.8 | 0 | 2.2 | 0.3 | 0
N#Cc1ccc(C(c2ccc(C#N)cc2)n2cncn2)cc1 [Letrozole] | 0 | 0 | 0 | 0 | 0 | 0 | 0 | 0 | 0 | 0 | 0 | 0
CNC(=O)c1cc(COc2nnc(Nc3ccc(Cl)cc3)c3ccoc23)ccn1 [Telatinib] | 0 | 0 | 0 | 0.1 | 0 | 0 | 0 | 0.2 | 0 | 0 | 0 | 0
COc1cc2ncnc(Oc3cccc(NC(=O)Nc4cc(C(C)(C)C(F)(F)F)on4)c3)c2cc1OC | 0 | 0 | 0 | 0.4 | 3 | 0 | 2.4 | 0 | 0 | 0 | 1.5 | 1.3
N#CC(c1ccnc(OCc2ccc(CN3CCOCC3)cc2)n1)c1nc2ccccc2s1 (configuration not stated) [Bentamapimod] | 1.5 | 1.1 | 2.3 | 2 | 4.5 | 3.8 | 5.5 | 1.3 | 0.3 | 1.8 | 1.4 | 0

SMILES | drug sensitivity score (CAOV3) | drug sensitivity score (Ovsaho) | drug sensitivity score (OVCAR8) | drug sensitivity score (Kuramochi) | drug sensitivity score (OVCAR5) | drug sensitivity score (COV362) | drug sensitivity score (OV90) | drug sensitivity score (COV318) | drug sensitivity score (HOSE2C) | drug sensitivity score (OVCAR4) | drug sensitivity score (JHOS2) | drug sensitivity score (HOSE1C)
CCOc1ccccc1-n1c(C(C)N2CCN(C(=O)COc3ccc(Cl)cc3)CC2)nc2ccccc2c1=O (configuration not stated) [Erastin] | 0.9 | 0 | 7.9 | 0 | 0.9 | 1.4 | 1.4 | 1.9 | 0 | 9.1 | 0 | 0
Cn1ncc(Cl)c1-c1cc(C(=O)N[C@H](CN)Cc2cccc(F)c2)sc1Cl [Afuresertib] | 0.8 | 1.5 | 0.5 | 4 | 1.2 | 0 | 0.9 | 1.8 | 2.8 | 0.5 | 0 | 2.9
CS(=O)(=O)c1ccc(-c2cnc(N)c(C(=O)Nc3ccccc3)n2)cc1 [VE-821] | 0 | 1.2 | 0 | 0 | 0 | 0 | 0 | 0 | 1.7 | 0 | 0 | 4
O=C(Nc1c[nH]nc1-c1nc2ccc(CN3CCOCC3)cc2[nH]1)NC1CC1 [AT9283] | 16.9 | 5.2 | 3.1 | 3.5 | 4.6 | 4.4 | 2.6 | 1.1 | 7.4 | 6.8 | 3.5 | 2.4
CC(C)(C)NC(=O)[C@H]1CC[C@H]2[C@@H]3CC[C@H]4NC(=O)C=C[C@]4(C)[C@H]3CC[C@]12C [Finasteride] | 0 | 0 | 0 | 0 | 0 | 0 | 0 | 0 | 0 | 0 | 0 | 0
COc1cc(C(=O)O)ccc1NC(=O)[C@@H]1N[C@@H](CC(C)(C)C)[C@](C#N)(c2ccc(Cl)cc2F)[C@H]1c1cccc(Cl)c1F [Idasanutlin] | 0 | 0 | 3.3 | 0 | 0.7 | 0 | 0 | 0 | 10.5 | 1.2 | 0 | 16
O=C(Nc1ccncc1)C(=O)c1cn(Cc2ccc(Cl)cc2)c2ccccc12 [Indibulin] | 7.2 | 7.9 | 6.4 | 7.2 | 5.7 | 1.8 | 5.9 | 2.5 | 18.3 | 5.5 | 6.8 | 20.1
C[C@]12CC[C@H](O)CC1=CC[C@@H]1[C@@H]2CC[C@]2(C)C(c3cccnc3)=CC[C@@H]12 [Abiraterone] | 0 | 0 | 0 | 0 | 0 | 0 | 0.5 | 0 | 0 | 0.3 | 0 | 0.1
CC(C)c1c(C(=O)Nc2ccccc2)c(-c2ccccc2)c(-c2ccc(F)cc2)n1CC[C@@H](O)C[C@@H](O)CC(=O)O [Atorvastatin] | 0.8 | 5.2 | 3.6 | 1 | 0.4 | 0 | 2.3 | 0 | 10.8 | 0 | 0.3 | 10.1
C[C@@H](Oc1cc(-n2cnc3ccc(CN4CCN(C)CC4)cc32)sc1C(N)=O)c1ccccc1C(F)(F)F | 22.4 | 24.7 | 29.1 | 7.7 | 19.4 | 3.6 | 19.6 | 6.8 | 10.1 | 3.6 | 15.3 | 13.7
COc1cc2c(N3CCN(C(=O)Nc4ccc(OC(C)C)cc4)CC3)ncnc2cc1OCCCN1CCCCC1 [Tandutinib] | 0 | 0 | 0 | 0 | 0 | 0 | 0 | 0 | 0 | 0 | 0 | 0
CN1CCN(c2cc(C(=O)Nc3ccc4c(c3)-c3c(c(C(N)=O)nn3-c3ccc(F)cc3)CC4)c(Cl)cn2)CC1 [PHA 408] | 6 | 6.2 | 2.4 | 1.8 | 0.5 | 0.6 | 0.1 | 0.7 | 4.8 | 4.3 | 6.1 | 6.5
O[C@H](C[C@H]1c2c(F)cccc2-c2cncn21)[C@H]1CC[C@H](O)CC1 [GDC-0919] | 0.1 | 0 | 0.7 | 0.1 | 0.6 | 0 | 0 | 3 | 0 | 0.8 | 0.4 | 0
COc1cccc2c1c(O)c(C(=O)N(C)c1ccc(C(F)(F)F)cc1)c(=O)n2C [Tasquinimod] | 0 | 2 | 0 | 0.2 | 0 | 0 | 0 | 0 | 0 | 1.9 | 0.6 | 0
C[C@H]1C[C@@H](n2c(Nc3ccc(OC(F)(F)F)cc3)nc3cc(CCC(=O)O)ccc32)CC(C)(C)C1 | 0 | 0 | 0.1 | 0 | 0 | 0 | 0 | 0 | 0 | 0 | 0 | 0
